Measurements published in patent publication US10940475B2, “Gradient-on-a-chip” (Purdue Research Foundation, priority 2017, dated 2021).
Like-named read-outs stand apart in the source and are kept apart here.

What was measured:
S2 cells [1] = conditions: four hours
Experimental: (§1) A NE-4000X dual syringe pump (New era pump systems Inc., Farmingdale, N.Y.) was exposed to UV overnight before the day of experiments. The flow rate was adjusted to 0.1 ml/h, and using a 60 ml syringe a continuous inflow of medium and H2O2 (250 μM) through the inlets was maintained. The second pump was connected to the outlet to remove the medium at 0.2 ml/h to avoid overflow of liquids in the cell culture aperture of the device. The flow rate for the outlet pump was twice that of the incoming flow rate to accommodate for the use of two inlets. The paper strip with cells in 2D or 3D culture was placed in the cell culture slot of the device and exposed to the ROS gradient for four hours.

S2 cells [2] = conditions: four hours; remark: listed apart in the source
Experimental: as §1
Nuclear circularity and nuclear area were measured using the ImageJ software by outlining the nuclear shape based on DAPI staining. The most circular nuclei are given a score of 1 (perfectly round nucleus). Nuclear area was measured in pixels and converted to μm^2 based on the spatial calibration table of ImageJ.

S2 cells [3] = conditions: for cells with γ-H2Ax staining: low ROS concentration tier, gradient from 250 μM H2O2, four hours
Experimental: Human mammary epithelial non-neoplastic S1 cells^17 [used between passages 52 to 60], preinvasive S2 cells^18 [used between passages 218+2 and 218+10] and invasive T4-2 cells^19 [used between passages 28+4 and 28+10] that belong to the HMT-3522 breast cancer progression series, were cultured in H-14 medium, i.e., Dulbecco modified Eagle medium (DMEM) (Invitrogen Inc., Carlsbad, Calif.) supplemented with additives, prolactin (30.3 IU/ml; Sigma-Aldrich, St Louis, Mo.), insulin (100 μg/ml; Sigma-Aldrich), hydrocortisone (0.5 mg/ml; BD Biosciences, San Jose, Calif.), beta-estradiol (2.67×10^−5 μg/ml; Sigma-Aldrich), selenium (2.6 μg/ml; BD Biosciences) and transferrin (20 mg/ml; Sigma-Aldrich)^20. The culture medium also included epithelial growth factor (EGF) (20 mg/ml; BD Biosciences) until day 6 of culture, after which EGF was omitted from the culture medium to ensure proliferation arrest in 3D culture. Cell culture was performed at 37° C. in a humidified environment with 5% carbon dioxide and the culture medium was changed every three days for the S1 cells and every two days for S2 and T4-2 cells. Seeding densities in 2D culture were 22600 cells/cm^2 for S1 cells and 11900 cells/cm^2 for S2 and T4-2 cells. In 3D culture seeding densities were 86300 cells/cm^2 for S1 cells in the presence of Engelbreth-Holm-S warm (EHS) mouse derived Matrigel (Corning Life Sciences, Tewksbury, Ma.) or within collagen-1 rich Collymer matrix (GeniPhys™, Zionsville, Ind.) and 43150 cells/cm^2 for S2 and T4-2 cells. […] Briefly, 42 μl of Matrigel per cm^2 was used for the drip method with cells in 150 μl of medium, dripped on the gel-coated surface, before adding another 150 μl of medium with 10% EHS gel drop-by-drop all over the culture surface five minutes later (in the end seeding involved 3.47×10^4S1 cells/cm^2 per 55 μl of Matrigel; 1.74×10^4S2 or T4-2 cells/cm^2 per 55 μl of Matrigel). Collymers were prepared at different degrees of stiffness based on the formula provided by the manufacturer. S1 cells were cultured in 800 Pa Collymers stiffness, S2 cells were cultured in 800 Pa and 1500 Pa Collymers stiffness and T4-2 cells were cultured in 1500 Collymers stiffness. For the S2 cells, since they are preinvasive and nodules are surrounded by a basement membrane, basement membrane formation inducer laminin 111 (Corning) was mixed at 76 μg/ml final concentration with Collymers. For the Collymers thin-embedded culture, the surface was coated with 14 μl/cm^2 of Collymers of the desired stiffness. Collymers become opaque when they form a gel by incubation five minutes at 37° C. Cells were mixed with Collymers at the following concentrations per surface of culture and Collymers volume units: 4500 cells/cm^2/μl for S1 cells and 2262 cells/cm^2/μl for S2 and T4-2 cells. Following centrifugation at 2950 g for five minutes, the cells needed for each culture surface were put in solution in 5 μl of H-14 medium. Then, the cell suspension was mixed with Collymers (55 μl/cm^2 of culture surface) by gentle pipetting before coating on the cell culture surface, drop-by-drop all over the surface, and spreading with the pipette tip to ensure even distribution over the culture surface. After incubation five minutes at 37° C., 500 μl medium was added on top of the Collymers-embedded cells.
Antibodies used included Anti-rabbit Caspase-3 (Cell Signaling Technologies, Boston, Mass. 1/400 dilution), AOP2 (Abcam, Cambridge, Mass.; 2 μg/ml) and γ-H2AX (Ser139; Millipore, clone JBW301, 3.3 μg/ml). […]

Structure (SMILES): OO [ROS, hydrogen peroxide]
- oxidative DNA damage based on 8-OHdG expression (S2 cells [1]; low ROS concentration tier, 2D and 3D Matrigel culture): did no show oxidative DNA damage
- 8-OHdG levels (S2 cells [1]; medium and high ROS concentration tiers, 2D cell culture and 3D Matrigel cell culture): significant, but similar increase
- AOP2 response (nodules stained for AOP2) (S2 cells [1]; regardless of the ROS levels): ~100%
- nuclear area (S2 cells [2]; ROS exposure regardless of the cell culture condition): increased
- nuclear circularity (S2 cells [2]; with increasing ROS concentration tiers, all culture conditions): decreased
- γ-H2AX response level of the cell population (S2 cells [3]; high concentration tier, all culture conditions, four hours): around 40%
- cells with γ-H2Ax staining (S2 cells [3]; 800 Pa Collymers): 20%
- cells with γ-H2Ax staining (S2 cells [3]; 1500 Pa Collymers culture): less than 5%
- cells with γ-H2Ax staining (S2 cells [3]; Matrigel culture): less than 5%
- cells with γ-H2Ax staining (S2 cells [3]; cells cultured on paper (2D)): 20%
